Reference: ChEMBL document CHEMBL1201862, “PubChem BioAssay data set” (2004)
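Grown in 96-well plates, cells were treated for 48 hours with each compound at five concentrations. Insufficient inhibition: endpoint recorded as highest concentration tested. GI50: concentration for 50% inhibition of growth.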 The source made the active and inactive calls. Cut-off read from the data, not from the text of the source: active = GI50 up to about 1.1 µM and inactive = higher.

Tests used:
Experiment in all cases: growth of human tumour cells (NCI), 48 h
U-251 = test system: U-251
UO-31 = test system: UO-31
DLD-1 = test system: DLD-1
NCI-H522 = test system: NCI-H522
OVCAR-5 = test system: OVCAR-5
EKVX = test system: EKVX
786-0 = test system: 786-0
Malme-3M = test system: Malme-3M
M19-MEL = test system: M19-MEL
LOX IMVI = test system: LOX IMVI
HCT-116 = test system: HCT-116
KM12 = test system: KM12
XF498 = test system: XF498
K562 = test system: K562
SW-620 = test system: SW-620
SK-MEL-2 = test system: SK-MEL-2
SF-539 = test system: SF-539
HT-29 = test system: HT-29
IGROV-1 = test system: IGROV-1
RPMI-8226 = test system: RPMI-8226
ACHN = test system: ACHN
CCRF-CEM = test system: CCRF-CEM
M14 = test system: M14
HOP-92 = test system: HOP-92
SK-MEL-28 = test system: SK-MEL-28
A498 = test system: A498
SNB-78 = test system: SNB-78
HCC 2998 = test system: HCC 2998
DMS-114 = test system: DMS-114
SK-MEL-5 = test system: SK-MEL-5
HOP-62 = test system: HOP-62
KM-20L2 = test system: KM-20L2
UACC-62 = test system: UACC-62
A549 = test system: A549
LXFL 529 = test system: LXFL 529
UACC-257 = test system: UACC-257
SK-OV-3 = test system: SK-OV-3
SNB-75 = test system: SNB-75
NCI-H23 = test system: NCI-H23
SF-295 = test system: SF-295
RXF 393 = test system: RXF 393
DMS-273 = test system: DMS-273
NCI-H226 = test system: NCI-H226
MOLT-4 = test system: MOLT-4
NCI-H460 = test system: NCI-H460
OVCAR-3 = test system: OVCAR-3
TK-10 = test system: TK-10
HL-60 = test system: HL-60
OVCAR-8 = test system: OVCAR-8
RXF 631 = test system: RXF 631
COLO 205 = test system: COLO 205
SF-268 = test system: SF-268
SR = test system: SR
CAKI-1 = test system: CAKI-1
OVCAR-4 = test system: OVCAR-4
SN12C = test system: SN12C
SNB-19 = test system: SNB-19

Measured: GI50

CCN(CC)CC(C(=O)Nc1c(C)cccc1C)/C(C)=N/NC(N)=S (centres undefined)
inactive: U-251 > 100 µM | UO-31 > 100 µM | DLD-1 > 100 µM | NCI-H522 > 100 µM | OVCAR-5 > 100 µM | EKVX > 100 µM | 786-0 > 100 µM | Malme-3M > 100 µM | M19-MEL > 100 µM | LOX IMVI > 100 µM | HCT-116 > 100 µM | KM12 > 100 µM | XF498 > 100 µM | K562 > 100 µM | SW-620 > 100 µM | SK-MEL-2 > 100 µM | SF-539 > 100 µM | HT-29 > 100 µM | IGROV-1 > 100 µM | RPMI-8226 > 100 µM | ACHN > 100 µM | CCRF-CEM > 100 µM | M14 > 100 µM | HOP-92 > 100 µM | SK-MEL-28 > 100 µM | A498 > 100 µM | SNB-78 > 100 µM | HCC 2998 > 100 µM | DMS-114 > 100 µM | SK-MEL-5 > 100 µM | HOP-62 > 100 µM | KM-20L2 > 100 µM | UACC-62 > 100 µM | A549 > 100 µM | LXFL 529 > 100 µM | UACC-257 > 100 µM | SK-OV-3 > 100 µM | SNB-75 > 100 µM | NCI-H23 > 100 µM | SF-295 > 100 µM | RXF 393 > 100 µM | DMS-273 > 100 µM | NCI-H226 > 100 µM | MOLT-4 > 100 µM | NCI-H460 > 100 µM | OVCAR-3 > 100 µM | TK-10 > 100 µM | HL-60 > 100 µM | OVCAR-8 > 100 µM | RXF 631 > 100 µM | COLO 205 > 100 µM | SF-268 > 100 µM

CC(C)(C)OC(=O)N1C2CCCC23O[C@@H]1c1cc2c(cc1C3=O)OCO2 (some centres undefined)
inactive: SR 32.1 µM | U-251 41.3 µM | UO-31 39.6 µM | DLD-1 27.1 µM | NCI-H522 8.89 µM | OVCAR-5 > 100 µM | EKVX 43.9 µM | 786-0 34.5 µM | Malme-3M 25.6 µM | M19-MEL 26.6 µM | HCT-116 36.3 µM | KM12 14.4 µM | XF498 26.6 µM | K562 6.5 µM | SW-620 22.4 µM | SK-MEL-2 53.3 µM | SF-539 19.5 µM | CAKI-1 9.57 µM | HT-29 14.5 µM | IGROV-1 20 µM | ACHN 54.1 µM | CCRF-CEM 21.1 µM | M14 12.3 µM | HOP-92 28.6 µM | SK-MEL-28 67.3 µM | A498 > 10 µM | SNB-78 > 100 µM | OVCAR-4 > 100 µM | DMS-114 19.9 µM | SK-MEL-5 4.41 µM | HOP-62 23.6 µM | UACC-62 6.24 µM | A549 29.4 µM | LXFL 529 44.3 µM | UACC-257 52.8 µM | SK-OV-3 27.3 µM | SNB-75 12.6 µM | NCI-H23 24.9 µM | SF-295 20.8 µM | RXF 393 24.5 µM | DMS-273 6.27 µM | SN12C 41.2 µM | NCI-H226 81.1 µM | MOLT-4 24.6 µM | NCI-H460 34 µM | OVCAR-3 8.81 µM | TK-10 41 µM | HL-60 5.25 µM | OVCAR-8 61.1 µM | RXF 631 27.2 µM | SNB-19 39.2 µM | SF-268 41.8 µM
